# Source: patent US10039807B2, “bFGF-polymer conjugates, methods for making the same and applications thereof” (THE REGENTS OF THE UNIVERSITY OF CALIFORNIA, priority 2011, dated 2018)
# How the values were obtained:
# [1] = tested on: Human Dermal Fibroblast (HDF) cells; assay type: cell-based; details: 1 ng/ml bFGF or conjugate, 72 hours, with 125 nM PD173074
# Description: FIG. 6 depicts the exemplary results of an inhibition assay. The medium samples were prepared with and without 125 nM of PD173074. 2,000HDF cells/well was incubated with each of the sample for 72 hours at 37° C., 5% CO2. Each sample group was done with six replicates, and the whole experiment was repeated three times.
# To confirm that the bFGF-heparin mimicking conjugate promoted cell growth by the same transduction pathway as by native bFGF, a potent inhibitor for FGF receptor 1 (FGFR1) was included in the media. PD173074 (N-[2-[[4-(diethylamino)butyl]amino]-6-(3, 5-dimethoxyphenyl)pyrido[2, 3-d]pyrimidin-7-yl]-N′-(1, 1-dimethylethyl)-urea) competes with adenosine-5′-triphosphate (ATP) for binding to the receptors, a key step for FGFR phosphorylation, and shuts down the signal transduction pathways associated with cell proliferation.
# HDF cells were trypsinized and resuspended in UltraCULTURE™ serum-free medium supplemented with 2 mM L-Glutamine and 100 u/ml penicillin and 100 μg/ml streptomycin. […] On the next day, the experimental groups were prepared to contain 1 ng/ml of bFGF, or 1 ng/ml of bFGF with 1 μg/ml of heparin, or 1 ng/ml of bFGF-pSS-co-PEGMA; all with an addition of 125 nM of the inhibitor PD173074. The control groups were the replicates but without the addition of the inhibitor. Then, the medium in the wells was replaced with 100 μl of each sample. […]
# [2] = tested on: Human Dermal Fibroblast (HDF) cells; assay: Stability study of bFGF and bFGF conjugates under treatments, read out as HDF proliferation; assay type: cell-based; details: for percent cell growth after trypsin treatment: 0.1% w/v trypsin for 16 hours at 4° C.; for bioactivity after mildly acidic conditions: pH 4.7 for 16 hours at 4° C.; for percent cell growth after storage: storage at 4° C. for 16 hours
# Description: (§1) Preparation of untreated and treated samples is detailed in the Methods section. The concentrations of bFGF and bFGF in the conjugates under treatment were 0.05 ng/μL. The concentration of heparin under treatment was 0.075 ng/μl or 0.05 μg/μl, while the concentrations of the unconjugated polymers were 0.075 ng/μl. The final concentrations of bFGF and bFGF conjugates in the medium were 1 ng/ml. Incubation of HDF with each of the samples was carried out for 72 hours. CellTiter® blue assay was performed to quantify percent cell growth. Data was normalized to the blank sample (no bFGF added) in that same treatment group. Each sample was done with six repeats, and the whole experiment was repeated eight times including one blinded study, except (+)bFGF(+)1.5 ng/ml pPEGMA and (+)bFGF-pPEGMA were repeated four times. Error bars are SEM. Statistical analysis was done using two-way ANOVA and Student's T-test. * denotes p<0.05, ** denotes p<0.01 and *** denotes p<0.001 between the sample indicated and the (+) bFGF (−) heparin within that same stress set.
# To study the stability of bFGF and bFGF conjugates under various treatments (storage, acidic conditions, protease degradation, and heat), the protein and the conjugates were diluted in medium after these treatments and tested for their bioactivity in promoting HDF proliferation.
# The control blank group contained 15 μl of D-PBS. The 15 μl/experimental group was split into 4 vials of 3 μl/vial for four separate treatments. In one set of the 3 μl-vials, 27 μl of D-PBS was added to each vial and the samples were stored at 4° C. for 16 hours. In another set of 3 μl-vials, 27 μl of pH 4.7 PBS was added to each vial and the samples were stored at 4° C. for 16 hours. In the third set of 3 μl-vials, 27 μl of 0.1% Trypsin was added to each vial and the samples were stored at 4° C. for 16 hours. The fourth set of 3 μl-vials were stored at 4° C. for 16 hours before 27 μl of 1% TFA was added and treated for 2 hours at 4° C. The samples under no treatment and under heat treatment were prepared fresh in the same way towards the end of the 16 hour-treatment of other samples. The samples under heat treatment were placed in dry bath at 55° C. for 30 minutes. […] Then, the medium samples were used for cell proliferation assay as described above. After an incubation for 72 hours at 37° C., 5% CO2, CellTiter-Blue® assay was carried out to evaluate cell proliferation. […] Each group was done with six replicates, and the whole experiment was repeated four times, one of which was a blinded study. A two-way ANOVA and student's T-test were done for statistical analysis.
# The chosen treatments represent environmental stresses that the growth factor (or any heparin-binding protein) could be exposed to. For example, storage in the unfrozen form and exposure to heat during delivery, transport, or use were represented by the “Storage at 4° C. for 16 hours” treatment and “Heat at 55° C. for 30 minutes” treatment, respectively. Incubation at “pH 4.7 for 16 hours” is relevant because mildly acidic conditions are necessary to inhibit bacterial growth during wound treatment.
# Furthermore, the stability of the bFGF-heparin mimicking conjugate was challenged against proteolytic degradation and extreme acidic conditions by incubating with 0.1% w/v trypsin for 16 hours and 1% trifluoroacetic acid (TFA) for 2 hours, respectively. The starting concentrations of bFGF and bFGF in the conjugates were equivalent and the concentrations of the unconjugated polymers and heparin were the same at approximately stoichiometric ratios to bFGF. The positive control group contained a large excess (700 molar) of heparin to bFGF. The negative control was native bFGF alone.
# [3] = tested on: Human Dermal Fibroblast (HDF) cells; assay: Bioactivity study: HDF proliferation, CellTiter-Blue assay, untreated samples; assay type: cell-based; details: no stress, samples stored at −80° C. before use; 1 ng/ml bFGF or bFGF in conjugate; 72 hours; normalized to blank
# Description: as §1
# HDF cells were trypsinized and resuspended in UltraCULTURE™ serum-free medium supplemented with 2 mM L-Glutamine and 100 u/ml penicillin and 100 μg/ml streptomycin. The cells were plated at a concentration of 2000 cells/well in a 96-well plate and allowed to adhere over 16 hours at 37° C., 5% CO2. […] Then, the medium in the wells was replaced with 100 μl of each sample. After an incubation for 72 hours at 37° C., 5% CO2, CellTiter-Blue® assay was carried out to evaluate cell proliferation. […] Each group was done with six replicates, and the whole experiment was repeated four times, one of which was a blinded study.
# HDFs were used as the in vitro model to evaluate the bioactivity of the bFGF-heparin mimicking polymer conjugate before and after exposure to various stresses.
# [4] = tested on: Human Dermal Fibroblast (HDF) cells; assay: Bioactivity after 4-week storage at 4° C., HDF proliferation; assay type: cell-based; details: 4 weeks of storage at 4° C., then 1 ng/ml on HDF for 72 hours
# Description: FIG. 4B depicts exemplary bioactivity study of bFGF-heparin mimicking (bFGF-pSS-co-PEGMA) conjugate in promoting HDF proliferation compared to other control groups before and after the treatments. Preparation of untreated and treated samples is detailed in the Methods section. The concentrations of bFGF and bFGF in the conjugates under treatment were 0.05 ng/μL. The concentration of heparin under treatment was 0.075 ng/μl or 0.05 μg/μl, while the concentrations of the unconjugated polymers were 0.075 ng/μl. The final concentrations of bFGF and bFGF conjugates in the medium were 1 ng/ml. Bioactivity study of bFGF-heparin mimicking polymer, bFGF-pSS-co-PEGMA conjugate, after 4-week storage at 4° C. Data was normalized to the blank sample (contained medium only). Each group was done with six replicates.
# Bioactivity study of bFGF-pSS-co-PEGMA conjugate after long-time storage was also tested. After 4 weeks of storage 4° C.
# In these experiments, an amount of 30 μl of each experimental group in D-PBS was made up to contain 0.05 ng/μ1 of bFGF or bFGF-pSS-co-PEGMA conjugate. The positive control group was prepared to contain 0.05 ng/μl of bFGF and 0.05 μg/μl of heparin. The samples were then stored at 4° C. for 4 weeks. […]
# [5] = tested on: BaF3 cells (FR1C-11); assay: Proliferation study of BaF3 cells expressing FGFR1 and lacking heparan sulfate proteoglycans; assay type: cell-based; details: 42 hours, medium lacking IL-3, normalized to blank; for percent cell growth, bFGF or conjugate alone: 1 ng/ml, without heparin
# Description: BaF3 cells (FR1C-11), which express FGFR1 but lack heparin sulfate proteoglycans, were seeded at a density of 20,000 cells/well in cultured medium lacking IL-3 in a 96-well-plate. […] The cells were incubated for 42 hours. CellTiter® blue assay was performed to quantify percent cell growth. Data was normalized to blank sample group. Each group was done with six replicates. Error bars are standard deviations.
# Heparin (as cell surface receptors called heparan sulfate proteoglycans) is also known to increase the mitogenic activity of bFGF by increasing binding to the bFGF receptors (FGFRs). In addition, heparin promotes bFGFR dimerization by providing the “glue” between two bFGFs and two FGFRs (see crystal structure, FIGS. 12B and 12C). In fact, this heparin assisted, ligand-induced dimerization of bFGFRs is required for activity. […] In some embodiments, the new heparin mimicking polymer can induce the dimerization and uptake the FGFRs.
# While bFGF interacts directly with cells by binding to FGFRs, signal transduction cannot occur without the simultaneous interaction with heparan sulfate proteoglycan (HS) cell surface receptors. […] BaF3 cells are engineered to express FGFR1 and lack cell-surface HS; addition of soluble heparin is required to activate the cells with bFGF.
# [6] = tested on: Human Dermal Fibroblast (HDF) cells; details: 1 ng/ml to 1 mg/ml for 24 hours in the absence of bFGF
# Description: 5,000 HDF cells/well was incubated with various concentrations of each polymer for 24 hours at 37° C., 5% CO2. Then, each well was washed twice with D-PBS and subsequently incubated with 1 μM Calcein AM 4 μM Ethidium homodimer-1 in D-PBS for 20 minutes at 37° C., 5% CO2. Percentage of live cells was calculated by dividing the number of live cells by the total number of live and dead cells. Each experimental group was done with four replicates, and the whole experiment was repeated four times, one of which was a blinded study. Error bars are SEMs.
# HDF cells were trypsinized and resuspended in fibroblast growth medium lacking bFGF. The cells were plated at a concentration of 5000 cells/well in a 48-well plate and allowed to adhere over 16 hours at 37° C., 5% CO2. Then, the medium in the wells was replaced with 200 μl of the working medium containing various amount of polymer/heparin. After an incubation of 24 hours at 37° C., 5% CO2, cell viability was assessed using LIVE/DEAD® viability/cytotoxicity assay. Briefly, the cells were washed twice with pre-warmed D-PBS, then incubated with 200 μl of 1 μM Calcein AM and 4 μM Ethidium homodimer-1 in D-PBS for 20 minutes at 37° C., 5% CO2. […] The numbers of live and dead cells were counted manually using NIH Image J software, and percent live cells was calculated by dividing the number of live cells by the total number of live and dead cells. […]
# [7] = then 1 ng/ml on HDF for 72 hours
substance,measurement,setting,value
bFGF-pSS-co-PEGMA: bFGF covalently conjugated via a reversible disulfide bond to one heparin mimicking polymer pSS-co-PEGMA (mono-conjugate),percent cell growth in the presence of PD173074,[1],85±11%
same,percent cell growth after trypsin treatment,[2]; [7],176±11%
same,percent cell growth after TFA treatment,"[2]; 1% trifluoroacetic acid (TFA) for 2 hours, then 1 ng/ml on HDF for 72 hours",162±17%
same,percent cell growth after heat treatment,"[2]; heat at 55° C. for 30 minutes, then 1 ng/ml on HDF for 72 hours",167±12%
same,bioactivity after mildly acidic conditions,[2]; [7],statistically the same as before treatment
same,percent cell growth after storage,[2]; [7],210±10%
same,stability to the treatments (overall),"[2]; storage, pH 4.7, trypsin, 1% TFA, heat, read out as HDF proliferation",stable
same,percent cell growth,[3],213±13%
same,activity after long-time storage,[4],completely retained
same,"percent cell growth, bFGF or conjugate alone",[5],did not induce cell growth
same,"percent cell growth, bFGF or conjugate alone",[5]; listed as bFGF-pSS-co-pPEGMA,147±14%
"bFGF-poly(ethylene glycol) methyl ether methacrylate) [bFGF-pPEGMA, reference compound]",percent cell growth after trypsin treatment,[2]; [7],some stability
same,bioactivity after mildly acidic conditions,[2]; [7],some stability
same,percent cell growth after storage,[2]; [7],some stability
same,percent cell growth,[3],190±6%
"bFGF: Basic fibroblast growth factor, a 16-kDa polypeptide, also called fibroblast growth factor 2",percent cell growth in the presence of PD173074,[1],88±5%
same,percent cell growth,[3],192±9%
same,"percent cell growth, bFGF or conjugate alone",[5],127±12%
heparin [reference compound],percent cell viability,[6],the same as no polymer added
same,"percent cell growth, additive given with bFGF",[5]; 1 μg/ml of additive with 1 ng/ml of bFGF,384±35%
